Results published in patent publication US9913914B2, “Cell transport” (priority 2013, dated 2018).
No end group written: not given here. *: point of attachment. FITC = O=C1OC2(c3ccc(O)cc3Oc3cc(O)ccc32)c2ccc(NC(=S)*)cc21

Key:
[1] = tested on: PKA-dependent process of Dictyostelium aggregation; test: Aggregation of starved Dictyostelium cultures (PKA-dependent); assay type: cell-based, Dictyostelium discoideum; conditions: 10 micromolar
Procedure: FIG. 6. Cupid can transport small molecule cargo into cells. Starved Dictyostelium cultures were treated with no peptide (A), cupid B peptide (B), PKI peptide (C) and Cupid B-PKI peptide (D) and analysed for aggregation.
Upon starvation Dictyostelium initiates a developmental program leading to the aggregation of free-living amoebae. Genetic research has uncovered the crucial role that cyclic adenosine monophosphate (cAMP) plays in orchestrating as an extracellular chemoattractant in the initial aggregation process through Dictyostelium cAMP-dependent Protein Kinase (DdPKA). DdPKA can be inhibited by PKI, a 20 amino acid peptide sequence derived from an inhibitor of PKA, by PKI binding directly to the catalytic unit of PKA.
By creating a Cupid B-PKI fusion protein we aimed to establish that it prevents starving Dictyostelium cells from aggregating in vivo.

[2] = tested on: Dictyostelium discoideum amoeba cells; assay type: cell-based; conditions: for entry of fluorescently labeled peptide into cells: 10 μM, 1 hour, Dictyostelium cell; for time for half-maximal permeation: FITC-labelled peptide at 20 micromolar, Dictyostelium cells
Procedure: (§1) Peptides were labelled with Fluorescein isothiocyanate (FITC) using a FITC labeling kit as per instructions (Pierce, UK). When added to cell cultures the labeled peptides were visualized using a fluorescent microscope by exciting the FITC with a 488 nm spectral line, argon-ion laser (Excitation wavelength of 494 nm and an Emission wavelength of 518 nm).
AX2 wild type Dictyostelium cells were grown on SM agar plates seeded with Aerobacter aerogenes bacteria (also known as Klebsiella aerogenes) as a food source.
Cupid A ([…]; SEQ ID NO: 2) and Cupid B ([…]; SEQ ID NO: 1) were chemically synthesized labelled with FITC at the amino terminal. The peptides were added to cultured eukaryotic cells of Dictyostelium discoideum amoeba for varying amounts of time up to 2 hours. Cells were then washed and prepared for examination under a fluorescent microscope (FIG. 1). The time courses of permeation were compared to the class 3 CPP, the Antennapedia peptide, pANT which was also labelled with FITC in chemical synthesis (FIG. 2).

human fibroblasts = test: Permeation of FITC-labelled peptide into human fibroblasts; assay type: cell-based; conditions: 10 μM, 1 hour, Human Fibroblast cell
Description: as §1

[3] = tested on: human embryonic kidney cells; test: Permeation of FITC-labelled peptide into human embryonic kidney cells; assay type: cell-based; conditions: 10 μM, 1 hour, human kidney cell
Description: as §1

Substance	effect on Dictyostelium aggregation [1]	entry of fluorescently labeled peptide into cells [2]	time for half-maximal permeation [2] [min]	reversibility of permeation ([2]; media containing FITC-peptide replaced with peptide-free media)	entry of fluorescently labeled peptide into cells (human fibroblasts)	entry of fluorescently labeled peptide into cells [3]
Cupid B peptide: RRVQIWFQNKRAKVKR (SEQ ID NO: 1), cell penetrating peptide from Dictyostelium discoideum (listed as Dictyostelium discoideum)	neither the Cupid B peptide nor the PKI peptide alone have any effect on aggregation					
FITC-Cupid A: Cupid A (SEQ ID NO: 2) chemically synthesized, labelled with FITC at the amino terminal ({FITC}-RSVQIWFQNRRAKAR; listed as Dictyostelium discoideum)		entering cultured cells	28			
FITC-Cupid B: Cupid B (SEQ ID NO: 1) chemically synthesized, labelled with FITC at the amino terminal ({FITC}-RRVQIWFQNKRAKVKR; listed as Dictyostelium discoideum)		entering cultured cells	17	reversible	entering cultured cells	entering cultured cells
